Test results as given in article PMC7211198, “Phase 1b study of a small molecule antagonist of human chemokine (C-C motif) receptor 2 (PF-04136309) in combination with nab-paclitaxel/gemcitabine in first-line treatment of metastatic pancreatic ductal adenocarcinoma” (Investigational New Drugs, 2019).
Marks after values point to notes of the source that are not given here.

Assay: Safety and tolerability (TEAEs, SAEs, DLTs, RP2D) in phase Ib study
Format: in vivo, human
Excerpt: Safety assessments included collection of adverse events (AEs), serious AEs (SAEs), vital signs and physical examination, electrocardiogram (12-lead), laboratory assessments, including pregnancy test, and verification of concomitant treatments. A patient was considered as DLT-evaluable if the patient experienced a DLT or if otherwise, in the absence of a DLT, the patient received at least 85% of the planned doses of each study drug in the first 28-day cycle. DLTs were defined as any of the following events occurring in the first cycle of treatment (days 1 through 28) and attributed (i.e., judged to be at least possibly related) to the combination of PF-04136309 plus nab-paclitaxel/gemcitabine, where relationship with the combination could not be ruled out. DLTs were hematologic events of grade 4 neutropenia lasting >5 days; febrile neutropenia; grade ≥ 3 neutropenic infection; grade ≥ 3 thrombocytopenia with grade ≥ 2 bleeding; grade 4 thrombocytopenia; and nonhematologic events of grade 3 toxicities. Exceptions included nausea and vomiting responding to prophylaxis and/or treatment and lasting <7 days from each chemotherapy infusion period; diarrhea responding to treatment and lasting <7 days; grade 3 fatigue lasting <7 days; grade 3 QT interval corrected for heart rate prolongation (>500 msec) persisting after correction of any reversible causes; and/or grade 3 aspartate aminotransferase (AST) and/or alanine aminotransferase (ALT) increase lasting ≤7 days. All grade 4 toxicities and a delay of >2 weeks in receiving the next scheduled cycle due to persistent treatment-related toxicities were considered DLTs. AEs meeting DLT criteria in the dose-expansion phase included grade 3 events of diarrhea, hypokalemia, and dysesthesia and grade 4 hypoxia. […] AEs were graded according to the National Cancer Institute Common Terminology Criteria for Adverse Events, version 4.03.

[1] = 500 mg BID + nab-P/Gem, treatment-related SAE
[2] = 750 mg BID + nab-P/Gem, n = 4, treatment-related TEAE
[3] = 750 mg BID + nab-P/Gem, all-causality SAE
[4] = 750 mg BID + nab-P/Gem, all-causality TEAE
[5] = 750 mg BID + nab-P/Gem, treatment-related SAE
[6] = 500-mg BID group (n = 17), n = 1, considered unrelated to study treatment
[7] = Total N = 21, treatment-related TEAE

## O=C(NCC(=O)N1CC[C@H](N[C@H]2CC[C@@](O)(c3ccc(-c4ncccn4)cn3)CC2)C1)c1cccc(C(F)(F)F)c1 [PF-04136309]
[1]
  Any SAE, Grade 3: 3 (17.6) n (%)
  Any SAE, Grade 4: 1 (5.9) n (%)
  Any SAE, Grade 5: 1 (5.9) n (%)
  Any SAE, Total: 5 (29.4) n (%)
  Hypoxia, Grade 1: 0 n (%)
  Hypoxia, Grade 2: 0 n (%)
  Hypoxia, Grade 3: 0 n (%)
  Hypoxia, Grade 4: 1 (5.9) n (%)
  Hypoxia, Grade 5: 0 n (%)
  Hypoxia, Total: 1 (5.9) n (%)
  Pneumonia, Grade 1: 0 n (%)
  Pneumonia, Grade 2: 0 n (%)
  Pneumonia, Grade 3: 0 n (%)
  Pneumonia, Grade 4: 0 n (%)
  Pneumonia, Grade 5: 1 (5.9) n (%)
  Pneumonia, Total: 1 (5.9) n (%)
  Pneumonitis, Grade 1: 0 n (%)
  Pneumonitis, Grade 2: 0 n (%)
  Pneumonitis, Grade 3: 3 (17.6) n (%)
  Pneumonitis, Grade 4: 0 n (%)
  Pneumonitis, Grade 5: 0 n (%)
  Pneumonitis, Total: 3 (17.6) n (%)
  Pyrexia, Grade 1: 0 n (%)
  Pyrexia, Grade 2: 1 (5.9) n (%)
  Pyrexia, Grade 3: 0 n (%)
  Pyrexia, Grade 4: 0 n (%)
  Pyrexia, Grade 5: 0 n (%)
  Pyrexia, Total: 1 (5.9) n (%)
500 mg BID starting dose, three of 17 patients, four DLTs
  DLT events: grade 3 dysesthesia, diarrhea, and hypokalemia and one event of grade 4 hypoxia
750 mg BID + nab-P/Gem, n = 4, first cycle (days 1 through 28)
  DLT: 1 (25) n (%)
[2]
  ALT increase, grade ≥3: 1 (25.0) n (%)
  AST increase, grade ≥3: 1 (25.0) n (%)
  Anemia, grade ≥3: 0 n (%)
  Fatigue, grade ≥3: 0 n (%)
  Leukopenia, grade ≥3: 3 (75.0) n (%)
  Lymphopenia, grade ≥3: 1 (25.0) n (%)
  Neutropenia, grade ≥3: 3 (75.0) n (%)
  Pneumonitis, grade ≥3: 0 n (%)
[3]
  Any SAE, Grade 1: 0 n (%)
  Any SAE, Grade 2: 1 (25.0) n (%)
  Any SAE, Grade 3: 2 (50.0) n (%)
  Any SAE, Grade 4: 0 n (%)
  Any SAE, Grade 5: 0 n (%)
  Any SAE, Total: 3 (75.0) n (%)
  Appetite decrease, Grade 1: 0 n (%)
  Appetite decrease, Grade 2: 0 n (%)
  Appetite decrease, Grade 3: 1 (25.0) n (%)
  Appetite decrease, Grade 4: 0 n (%)
  Appetite decrease, Grade 5: 0 n (%)
  Appetite decrease, Total: 1 (25.0) n (%)
  Cellulitis, Grade 1: 0 n (%)
  Cellulitis, Grade 2: 0 n (%)
  Cellulitis, Grade 3: 1 (25.0) n (%)
  Cellulitis, Grade 4: 0 n (%)
  Cellulitis, Grade 5: 0 n (%)
  Cellulitis, Total: 1 (25.0) n (%)
  Cognitive disorder, Grade 1: 0 n (%)
  Cognitive disorder, Grade 2: 0 n (%)
  Cognitive disorder, Grade 3: 1 (25.0) n (%)
  Cognitive disorder, Grade 5: 0 n (%)
  Cognitive disorder, Total: 1 (25.0) n (%)
  Gastroesophageal reflux disease, Grade 1: 0 n (%)
  Gastroesophageal reflux disease, Grade 2: 0 n (%)
  Gastroesophageal reflux disease, Grade 3: 1 (25.0) n (%)
  Gastroesophageal reflux disease, Grade 4: 0 n (%)
  Gastroesophageal reflux disease, Grade 5: 0 n (%)
  Gastroesophageal reflux disease, Total: 1 (25.0) n (%)
  Rash, Grade 1: 0 n (%)
  Rash, Grade 2: 1 (25.0) n (%)
  Rash, Grade 3: 0 n (%)
  Rash, Grade 4: 0 n (%)
  Rash, Grade 5: 0 n (%)
  Rash, Total: 1 (25.0) n (%)
[4]
  ALT increase, Grade 1: 0 n (%)
  ALT increase, Grade 2: 2 (50.0) n (%)
  ALT increase, Grade 3: 1 (25.0) n (%)
  ALT increase, Grade 4: 0 n (%)
  ALT increase, Grade 5: 0 n (%)
  ALT increase, Total: 3 (75.0) n (%)
  Alopecia, Grade 1: 2 (50.0) n (%)
  Alopecia, Grade 2: 1 (25.0) n (%)
  Alopecia, Grade 3: 0 n (%)
  Alopecia, Grade 4: 0 n (%)
  Alopecia, Grade 5: 0 n (%)
  Alopecia, Total: 3 (75.0) n (%)
  Anemia, Grade 1: 0 n (%)
  Anemia, Grade 2: 2 (50.0) n (%)
  Anemia, Grade 3: 0 n (%)
  Anemia, Grade 4: 0 n (%)
  Anemia, Grade 5: 0 n (%)
  Anemia, Total: 2 (50.0) n (%)
  Any AE, Grade 1: 0 n (%)
  Any AE, Grade 2: 0 n (%)
  Any AE, Grade 3: 4 (100.0) n (%)
  Any AE, Grade 4: 0 n (%)
  Any AE, Grade 5: 0 n (%)
  Any AE, Total: 4 (100.0) n (%)
  Appetite decrease, Grade 1: 1 (25.0) n (%)
  Appetite decrease, Grade 2: 0 n (%)
  Appetite decrease, Grade 3: 1 (25.0) n (%)
  Appetite decrease, Grade 4: 0 n (%)
  Appetite decrease, Grade 5: 0 n (%)
  Appetite decrease, Total: 2 (50.0) n (%)
  Cellulitis, Grade 1: 0 n (%)
  Cellulitis, Grade 2: 1 (25.0) n (%)
  Cellulitis, Grade 3: 1 (25.0) n (%)
  Cellulitis, Grade 4: 0 n (%)
  Cellulitis, Grade 5: 0 n (%)
  Cellulitis, Total: 2 (50.0) n (%)
  Chills, Grade 1: 2 (50.0) n (%)
  Chills, Grade 2: 0 n (%)
  Chills, Grade 3: 0 n (%)
  Chills, Grade 4: 0 n (%)
  Chills, Grade 5: 0 n (%)
  Chills, Total: 2 (50.0) n (%)
  Constipation, Grade 1: 2 (50.0) n (%)
  Constipation, Grade 2: 1 (25.0) n (%)
  Constipation, Grade 3: 0 n (%)
  Constipation, Grade 4: 0 n (%)
  Constipation, Grade 5: 0 n (%)
  Constipation, Total: 3 (75.0) n (%)
  Fatigue, Grade 1: 3 (75.0) n (%)
  Fatigue, Grade 2: 1 (25.0) n (%)
  Fatigue, Grade 3: 0 n (%)
  Fatigue, Grade 4: 0 n (%)
  Fatigue, Grade 5: 0 n (%)
  Fatigue, Total: 4 (100.0) n (%)
  Insomnia, Grade 1: 1 (25.0) n (%)
  Insomnia, Grade 2: 1 (25.0) n (%)
  Insomnia, Grade 3: 0 n (%)
  Insomnia, Grade 4: 0 n (%)
  Insomnia, Grade 5: 0 n (%)
  Insomnia, Total: 2 (50.0) n (%)
  Leukopenia, Grade 1: 0 n (%)
  Leukopenia, Grade 2: 0 n (%)
  Leukopenia, Grade 3: 3 (75.0) n (%)
  Leukopenia, Grade 4: 0 n (%)
  Leukopenia, Grade 5: 0 n (%)
  Leukopenia, Total: 3 (75.0) n (%)
  Malaise, Grade 1: 2 (50.0) n (%)
  Malaise, Grade 2: 0 n (%)
  Malaise, Grade 3: 0 n (%)
  Malaise, Grade 4: 0 n (%)
  Malaise, Grade 5: 0 n (%)
  Malaise, Total: 2 (50.0) n (%)
  Nausea, Grade 1: 3 (75.0) n (%)
  Nausea, Grade 2: 0 n (%)
  Nausea, Grade 3: 1 (25.0) n (%)
  Nausea, Grade 4: 0 n (%)
  Nausea, Grade 5: 0 n (%)
  Nausea, Total: 4 (100.0) n (%)
  Neutropenia, Grade 1: 0 n (%)
  Neutropenia, Grade 2: 0 n (%)
  Neutropenia, Grade 3: 3 (75.0) n (%)
  Neutropenia, Grade 4: 0 n (%)
  Neutropenia, Grade 5: 0 n (%)
  Neutropenia, Total: 3 (75.0) n (%)
  Pain in extremity, Grade 1: 1 (25.0) n (%)
  Pain in extremity, Grade 2: 1 (25.0) n (%)
  Pain in extremity, Grade 3: 0 n (%)
  Pain in extremity, Grade 4: 0 n (%)
  Pain in extremity, Grade 5: 0 n (%)
  Pain in extremity, Total: 2 (50.0) n (%)
  Pyrexia, Grade 1: 1 (25.0) n (%)
  Pyrexia, Grade 2: 1 (25.0) n (%)
  Pyrexia, Grade 3: 0 n (%)
  Pyrexia, Grade 4: 0 n (%)
  Pyrexia, Grade 5: 0 n (%)
  Pyrexia, Total: 2 (50.0) n (%)
  Rash, Grade 1: 2 (50.0) n (%)
  Rash, Grade 2: 1 (25.0) n (%)
  Rash, Grade 3: 0 n (%)
  Rash, Grade 4: 0 n (%)
  Rash, Grade 5: 0 n (%)
  Rash, Total: 3 (75.0) n (%)
  Thrombocytopenia, Grade 1: 1 (25.0) n (%)
  Thrombocytopenia, Grade 2: 1 (25.0) n (%)
  Thrombocytopenia, Grade 3: 0 n (%)
  Thrombocytopenia, Grade 4: 0 n (%)
  Thrombocytopenia, Grade 5: 0 n (%)
  Thrombocytopenia, Total: 2 (50.0) n (%)
  Vomiting, Grade 1: 2 (50.0) n (%)
  Vomiting, Grade 2: 1 (25.0) n (%)
  Vomiting, Grade 3: 0 n (%)
  Vomiting, Grade 4: 0 n (%)
  Vomiting, Grade 5: 0 n (%)
  Vomiting, Total: 3 (75.0) n (%)
[5]
  Any SAE, Grade 1: 0 n (%)
  Any SAE, Grade 2: 1 (25.0) n (%)
  Any SAE, Grade 3: 1 (25.0) n (%)
  Any SAE, Grade 4: 0 n (%)
  Any SAE, Grade 5: 0 n (%)
  Any SAE, Total: 2 (50.0) n (%)
  Cognitive disorder, Grade 1: 0 n (%)
  Cognitive disorder, Grade 2: 0 n (%)
  Cognitive disorder, Grade 3: 1 (25.0) n (%)
  Cognitive disorder, Grade 4: 0 n (%)
  Cognitive disorder, Grade 5: 0 n (%)
  Cognitive disorder, Total: 1 (25.0) n (%)
  Rash, Grade 1: 0 n (%)
  Rash, Grade 2: 1 (25.0) n (%)
  Rash, Grade 3: 0 n (%)
  Rash, Grade 4: 0 n (%)
  Rash, Grade 5: 0 n (%)
  Rash, Total: 1 (25.0) n (%)
14 of the 21 treated patients
  Patients who experienced SAEs: 66.7%
[6]
  Grade 4 TEAE: decreased neutrophil count, patients: 5.9%
  Grade 4 TEAE: decreased white blood cell count, patients: 5.9%
500-mg BID group (n = 17), n = 6
  PF-04136309-related TEAE: rash, patients: 35.3%
750-mg BID group (n = 4), n = 3
  PF-04136309-related TEAE: rash, patients: 75.0%
750-mg BID group, one of four patients, cycle 1 day 7, resolved same day
  DLT events: grade 3 cognitive disorder
[7]
  ALT increase, grade ≥3: 4 (19.0) n (%)
  AST increase, grade ≥3: 4 (19.0) n (%)
  Anemia, grade ≥3: 4 (19.0) n (%)
  Fatigue, grade ≥3: 4 (19.0) n (%)
  Leukopenia, grade ≥3: 5 (23.8) n (%)
  Lymphopenia, grade ≥3: 5 (23.8) n (%)
  Neutropenia, grade ≥3: 5 (23.8) n (%)
Total n = 21, first cycle, 5 DLTs in four patients
  DLT: 4 (19.0)^c n (%)
All in 500-mg BID group, 10 of 11 due to disease under study, one due to grade 5 pneumonia
  Deaths: Eleven
All treated patients
  Changes in laboratory tests consistent with a relationship to study drug: no clinically significant changes
  Changes in vital signs data consistent with a relationship to study drug: no clinically significant changes
In combination with nab-paclitaxel/gemcitabine
  Recommended phase II dose (RP2D): 500 mg BID
In vivo
  Late-onset DLT: Grade 3 pneumonitis
N = 21, combination with nab-paclitaxel/gemcitabine
  Incidence of pulmonary toxicity: 24%
Seven of 21, attributed to at least one of PF-04136309, nab-paclitaxel, gemcitabine
  Patients who experienced treatment-related SAEs: 33.3%
